Results as given in ChEMBL document CHEMBL1201862, “PubChem BioAssay data set” (2004).
Calls of active or inactive are those of the source.

Legend:
[1] = target: T1, Eukaryotic translation initiation factor 2-alpha kinase 3 (Homo sapiens, UniProt Q9NZJ5); assay: Dose response cell-based high-throughput screening assay to measure PERK inhibition. [Related pubchem assays: 1416 ]; assay type: functional
[2] = target: Luciferin 4-monooxygenase (Photinus pyralis, UniProt P08659); assay: inhibition of purified Photinus pyralis luciferase – biochemical, luminescence, dose response (AID 1891)
[3] = Luminescence Cell-Based Dose Confirmation HTS to Identify Inhibitors of Platelet Dense Granule Release. [Related pubchem assays: 1663 (Primary HTS), 1678 (Summary of Project)]; assay type: functional
[4] = target: T1, Eukaryotic translation initiation factor 2-alpha kinase 3; assay: Counterscreen assay for PERK inhibitors: Dose response cell-based high throughput screening assay to measure inhibition of PERK at 6 hours. [Related pubchem assays: 1522, 1416 ]; assay type: functional
[5] = Counterscreen for IDE inhibitors: Luminescence-based cell-based high throughput dose response assay to identify compounds that are cytotoxic to HEK cells. [Related pubchem assays: 434962 (Primary screen (IDE inhibitors in singlicate)), 449730 (Counterscreen (Cytotoxicity in triplicate)), 435028 (Confirmation (IDE inhibitors in triplicate)) …; assay type: functional; conditions: HEK293
Insulin-degrading enzyme = Insulin-degrading enzyme (Homo sapiens, UniProt P14735); assay: Dose Response: Fluorescence polarization-based cell-based high throughput dose response assay for inhibitors of insulin-degrading enzyme (IDE). [Related pubchem assays: 434962 (Primary screen (IDE inhibitors in singlicate)), 449730 (Counterscreen (Cytotoxicity in triplicate)), 435028 (Confirmation (IDE inhibitors in triplicate)), 434984 (Summary …; assay type: functional
[6] = target: Dual specificity protein phosphatase 3 (Homo sapiens, UniProt P51452); assay: inhibition constants for human DUSP3 – biochemical, colorimetric, SAR follow-up (AID 2004)
Aspartyl aminopeptidase = Aspartyl aminopeptidase (Plasmodium falciparum 3D7, UniProt Q8I2J3)
Procathepsin L = Procathepsin L (Homo sapiens, UniProt P07711)
[7] = target: T2, Mannose-6-phosphate isomerase (Homo sapiens, UniProt P34949); assay: MPI enzyme activity inhibition – biochemical, fluorescence intensity, coupled assay, primary screen (AID 1209)
T2 sequence (P34949 whole entry): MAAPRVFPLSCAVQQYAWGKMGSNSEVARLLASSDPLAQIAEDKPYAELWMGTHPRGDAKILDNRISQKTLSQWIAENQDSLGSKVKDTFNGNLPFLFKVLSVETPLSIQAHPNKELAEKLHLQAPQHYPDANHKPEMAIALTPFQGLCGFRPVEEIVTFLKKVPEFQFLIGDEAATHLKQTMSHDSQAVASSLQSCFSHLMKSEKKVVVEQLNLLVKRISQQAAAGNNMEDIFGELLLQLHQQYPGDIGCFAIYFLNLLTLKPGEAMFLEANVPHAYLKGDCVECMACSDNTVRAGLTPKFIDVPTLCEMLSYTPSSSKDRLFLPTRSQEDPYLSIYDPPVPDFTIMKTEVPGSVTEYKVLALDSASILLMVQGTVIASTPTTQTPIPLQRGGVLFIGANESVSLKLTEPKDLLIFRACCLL

[8] = target: Glucose-6-phosphate 1-dehydrogenase (Homo sapiens, UniProt P11413); assay: inhibition of Homo sapiens G6PD, dose series – biochemical, fluorescence, selectivity assay for P. falciparum G6PD inhibitor project, dose response (AID 504792); assay type: functional
Cytochrome P450 2C19 = Cytochrome P450 2C19 (Homo sapiens, UniProt P33261); assay: qHTS Assay for Inhibitors and Substrates of Cytochrome P450 2C19. [Related pubchem assays: 410 ]; assay type: ADME; conditions: read-out: Potency
Cytochrome P450 2C9 = Cytochrome P450 2C9 (Homo sapiens, UniProt P11712); conditions: Potency
Staphylococcus aureus = assay: Inhibitors of Bacterial Quorum Sensing Structure Activity Relationship (SAR) Analysis: Dose Response Assay. [Related pubchem assays: 700, 527 ]; assay type: functional, organism-based
[9] = target: Acyl-homoserine lactone acylase PvdQ (Pseudomonas aeruginosa (strain LESB58), UniProt Q9I194); assay: PvdQ acylase enzyme activity blockers – biochemical, fluorescence, plate reader and imaging, cherry-picks, dose response (AID 493231)
[10] = Luminescence-based counterscreen assay for KLF5 inhibitors: dose response cell-based high throughput screening assay to identify cytotoxic compounds using the IEC-6 intestinal epithelial cell line. [Related pubchem assays: 1700 (Primary screen.), 1834 (Confirmation screen.), 1858 (Summary AID.), 1905 (Counterscreen.)]; assay type: functional
[11] = A549 cell cytotoxicity, dose response, cytotoxicity control, plate reader, cherry-pick, antagonist series (AID 743412); assay type: functional, cell-based
[12] = toxicity toward HepG2 liver cells – cell-based, plate reader, cherry-pick, antagonist series, cytotoxicity control, dose response (AID 743416); assay type: functional
[13] = blockers of bursicon-stimulated LGR2 cAMP reporter – cell-based, HEK293, CRE-luciferase reporter, cherry pick, set 2, dose response (AID 743343); assay type: functional;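 also: transfected cells were stimulated with diluted bursicon conditioned medium after compound addition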
[14] = blockade of melanocortin 4 receptor signaling – cell-based, plate reader, cherry pick, counter-screen for LGR2 antagonist project, dose response (AID 743444); assay type: functional;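 also: transfected HEK 293 cells stimulated with alpha-MSH peptide; potency of inhibitors of the alpha-MSH evoked signal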
[15] = target: T3, Oxysterols receptor LXR-beta (Homo sapiens, UniProt P55055); assay type: functional, cell-based;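 also: Cell-based luminescence dose-response assay of agonist activity at LXR, run as a confirmatory counterscreen to a daf-12 agonist screen; HEK293 cells with Gal4-LXR fusion and GAL4-driven luciferase reporter; agonist potency from rising luciferase signal of a Gal4-LXR reporter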
T3 sequence (P55055 whole entry): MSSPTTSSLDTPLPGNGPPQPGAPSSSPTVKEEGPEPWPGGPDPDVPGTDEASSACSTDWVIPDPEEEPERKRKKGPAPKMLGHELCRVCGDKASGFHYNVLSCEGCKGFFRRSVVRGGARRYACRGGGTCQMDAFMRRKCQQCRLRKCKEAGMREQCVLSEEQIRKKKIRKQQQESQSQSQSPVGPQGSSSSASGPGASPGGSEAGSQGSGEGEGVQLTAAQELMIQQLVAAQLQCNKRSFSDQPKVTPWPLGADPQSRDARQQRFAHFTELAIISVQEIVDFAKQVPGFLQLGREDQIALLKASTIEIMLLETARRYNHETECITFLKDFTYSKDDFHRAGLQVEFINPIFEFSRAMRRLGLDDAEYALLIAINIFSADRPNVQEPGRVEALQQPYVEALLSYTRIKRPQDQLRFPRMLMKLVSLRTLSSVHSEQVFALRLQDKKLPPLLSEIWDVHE

[16] = target: Mothers against decapentaplegic homolog 3 (Homo sapiens, UniProt P84022); assay: blockers of Smad3 complex formation in lysate – cell lysate, secondary confirmation, chemiluminescent ELISA, HEK293 lysate, dose response (AID 1058); assay type: functional
[17] = target: Cyclin-dependent kinase 5/CDK5 activator 1 (Homo sapiens, UniProt Q00535); assay: blockade of human CDK5 activity – biochemical, cherry-picked samples, set 2, dose response (AID 504545)
[18] = NIH-3T3 fibroblast cytotoxicity, dose response, cytotoxicity control, cell-based, fluorescence, Alamar Blue, secondary assay (AID 2327); assay type: functional;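 also: NIH-3T3 mouse fibroblasts cultured with fluconazole at 8 µg/mL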
[19] = decrease of insulin promoter-GFP reporter – imaging, high-content screening, mouse beta cells (AID 1628); assay type: functional; conditions: MIN6
[20] = test system: Streptococcus sp. 'group A'; assay: Streptococcus pyogenes SK(-)GAS viability under kanamycin – luminescence, BacTiterGlo, confirmation, counter-screen for streptokinase expression inhibitor project, dose response (AID 1900); assay type: functional, organism-based
[21] = MIN6 cell viability loss – mouse insulinoma, cytotoxicity control, dose response (AID 2122); assay type: functional;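 also: confirmatory high-throughput counterscreen run to flag cytotoxic compounds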
[22] = fluconazole-exposed Candida albicans growth modulators – fluorescence, retest, confirmation (AID 2467); assay type: functional, cell-based
[23] = Trypanosoma cruzi growth suppression in host cells – NIH3T3 host cells, beta-gal luminescence, confirmation (AID 2044); assay type: functional, cell-based;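 also: intracellular parasites grown in NIH/3T3 mouse fibroblasts as host cells; luminescent beta-galactosidase reporter signal from transgenic T. cruzi replicating inside host cells; inhibitors lower the luminescence signal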
[24] = NIH3T3 cell viability loss – ATP luminescence, mouse fibroblasts, counter-screen, dose response (AID 2010); assay type: functional, cell-based;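 also: cells exposed to compound for about 90 hours before reading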
Streptococcus = assay: GAS UMAA2166 growth inhibition – luminescence, BacTiterGlo, counter-screen for streptokinase expression inhibitor project, dose response (AID 1915); assay type: functional, organism-based;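 also: potency for reduction of bacterial viability or growth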
[25] = target: C-C chemokine receptor type 6 (Homo sapiens, UniProt P51684); assay: antagonism of CCR6 beta-arrestin recruitment – cell-based, luminescent beta-arrestin readout, dose response (AID 504728); assay type: functional
Beta-galactosidase = Beta-galactosidase (Escherichia coli, UniProt Q8VNN2); assay: detection-enzyme interference by beta-gal modulators – biochemical, E. coli enzyme, set 3, artefact control for CCR6 antagonist project, dose response (AID 504712); assay type: functional
Paired box protein Pax-8 = Paired box protein Pax-8 (Homo sapiens, UniProt Q06710); assay: PAX8 transcriptional activity inhibition in RMG-I – RMG-I cells, luciferase, cherry-pick, dose response (AID 687027); assay type: functional, cell-based;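 also: luciferase reporter driven by Pax8 target thyroperoxidase promoter measured by SteadyGlo luminescence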
[26] = general cell-killing toxicity readout – plate reader, dry powder samples, cytotoxicity control for PAX8 inhibitor project, dose response (AID 743021); assay type: functional, cell-based
HeLa = assay: viability loss in HeLa cells – cell-based, 24 h, cherry-picked samples, cytotoxicity control, dose response (AID 504726); assay type: functional; conditions: Homo sapiens;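 also: potency for cytotoxicity as loss of luminescence signal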
[27] = target: T4, Polyadenylate-binding protein 1 (Homo sapiens, UniProt P11940); assay: MLLE binding blockers, Cy5 peptide tracer – biochemical, fluorescence polarization, Cy5-PAM2 peptide, secondary, miRNA deadenylation inhibitor project, dose response (AID 602260); assay type: functional; conditions: read-out: IC50_Mean
[28] = target: T4, Polyadenylate-binding protein 1; assay: MLLE domain peptide-binding blockers, IC50 – biochemical, fluorescence polarization, FITC-PAM2 peptide, dose response (AID 602259); assay type: functional; conditions: read-out: IC50_Mean
[29] = inhibition of ARNT PAS-B/TACC3 complex formation – biochemical, AlphaScreen, cherry-picked samples, confirmation (AID 651703); assay type: functional, Homo sapiens;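 also: His-tagged ARNT PAS-B domain paired with GST-TACC3 E629A dimer coactivator fragment; potency of inhibitors that break up the complex and lower AlphaScreen signal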
[30] = viability loss in THP-1 monocytes – THP-1 cells, cytotoxicity control for Vif-APOBEC3G degradation inhibitor project, dose response (AID 1117359); assay type: functional; conditions: THP-1
Protein Rev = Protein Rev (Human immunodeficiency virus type 1 group M subtype B (isolate WMJ22)(HIV-1), UniProt P05866); assay: inhibitors of Rev protein–RRE RNA complex – biochemical, protein-RNA interaction, dose response (AID 842); set-up: species or system Human immunodeficiency virus 1
Sequence of Protein Rev (P05866 whole entry): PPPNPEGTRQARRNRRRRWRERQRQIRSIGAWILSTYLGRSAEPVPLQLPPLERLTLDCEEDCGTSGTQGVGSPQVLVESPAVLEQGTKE

T1 sequence (Q9NZJ5 whole entry): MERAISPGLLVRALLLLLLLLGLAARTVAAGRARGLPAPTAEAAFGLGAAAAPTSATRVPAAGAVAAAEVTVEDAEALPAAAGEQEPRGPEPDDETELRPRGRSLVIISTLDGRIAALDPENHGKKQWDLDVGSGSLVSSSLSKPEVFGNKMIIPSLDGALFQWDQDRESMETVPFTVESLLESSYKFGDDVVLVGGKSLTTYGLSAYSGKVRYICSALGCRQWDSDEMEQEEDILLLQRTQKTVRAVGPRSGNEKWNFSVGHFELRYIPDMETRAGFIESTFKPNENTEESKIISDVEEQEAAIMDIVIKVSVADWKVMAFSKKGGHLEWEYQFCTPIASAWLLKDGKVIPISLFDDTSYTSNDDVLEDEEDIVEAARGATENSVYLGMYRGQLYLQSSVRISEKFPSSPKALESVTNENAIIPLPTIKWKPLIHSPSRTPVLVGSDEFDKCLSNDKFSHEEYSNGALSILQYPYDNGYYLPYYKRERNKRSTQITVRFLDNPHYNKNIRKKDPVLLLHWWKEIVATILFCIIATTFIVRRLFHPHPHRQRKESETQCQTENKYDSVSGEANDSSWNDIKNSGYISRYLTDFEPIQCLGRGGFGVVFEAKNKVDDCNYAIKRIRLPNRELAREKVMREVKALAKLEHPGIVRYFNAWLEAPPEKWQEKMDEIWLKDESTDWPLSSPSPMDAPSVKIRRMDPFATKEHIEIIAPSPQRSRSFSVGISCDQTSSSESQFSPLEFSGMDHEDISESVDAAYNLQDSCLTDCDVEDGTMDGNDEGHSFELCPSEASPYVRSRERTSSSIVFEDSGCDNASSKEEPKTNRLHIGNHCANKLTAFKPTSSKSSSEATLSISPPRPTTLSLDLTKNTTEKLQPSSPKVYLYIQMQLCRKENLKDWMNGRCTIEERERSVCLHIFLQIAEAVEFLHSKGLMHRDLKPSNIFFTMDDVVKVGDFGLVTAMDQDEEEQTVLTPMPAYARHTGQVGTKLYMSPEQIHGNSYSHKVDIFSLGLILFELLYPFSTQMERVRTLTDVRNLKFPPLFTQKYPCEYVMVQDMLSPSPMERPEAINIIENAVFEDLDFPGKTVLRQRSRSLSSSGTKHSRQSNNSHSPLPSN
T4 sequence (P11940 whole entry, the tested form may be a part): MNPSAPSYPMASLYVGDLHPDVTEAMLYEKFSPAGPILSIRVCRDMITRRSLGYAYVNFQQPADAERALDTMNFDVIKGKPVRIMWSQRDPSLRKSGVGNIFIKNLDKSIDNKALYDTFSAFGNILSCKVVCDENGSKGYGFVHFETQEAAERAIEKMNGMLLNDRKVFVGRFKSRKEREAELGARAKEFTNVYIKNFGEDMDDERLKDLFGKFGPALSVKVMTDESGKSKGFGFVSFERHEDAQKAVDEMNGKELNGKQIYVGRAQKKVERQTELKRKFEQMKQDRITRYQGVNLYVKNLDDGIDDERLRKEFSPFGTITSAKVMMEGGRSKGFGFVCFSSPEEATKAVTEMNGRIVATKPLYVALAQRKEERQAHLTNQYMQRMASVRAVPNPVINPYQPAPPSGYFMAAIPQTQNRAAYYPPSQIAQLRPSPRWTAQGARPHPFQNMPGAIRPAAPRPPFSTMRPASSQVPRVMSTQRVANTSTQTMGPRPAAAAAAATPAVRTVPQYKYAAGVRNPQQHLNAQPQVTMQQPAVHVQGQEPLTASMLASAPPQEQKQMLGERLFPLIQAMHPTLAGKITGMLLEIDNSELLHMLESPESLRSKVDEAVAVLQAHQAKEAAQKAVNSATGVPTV
Sequence of Glucose-6-phosphate 1-dehydrogenase (P11413 whole entry): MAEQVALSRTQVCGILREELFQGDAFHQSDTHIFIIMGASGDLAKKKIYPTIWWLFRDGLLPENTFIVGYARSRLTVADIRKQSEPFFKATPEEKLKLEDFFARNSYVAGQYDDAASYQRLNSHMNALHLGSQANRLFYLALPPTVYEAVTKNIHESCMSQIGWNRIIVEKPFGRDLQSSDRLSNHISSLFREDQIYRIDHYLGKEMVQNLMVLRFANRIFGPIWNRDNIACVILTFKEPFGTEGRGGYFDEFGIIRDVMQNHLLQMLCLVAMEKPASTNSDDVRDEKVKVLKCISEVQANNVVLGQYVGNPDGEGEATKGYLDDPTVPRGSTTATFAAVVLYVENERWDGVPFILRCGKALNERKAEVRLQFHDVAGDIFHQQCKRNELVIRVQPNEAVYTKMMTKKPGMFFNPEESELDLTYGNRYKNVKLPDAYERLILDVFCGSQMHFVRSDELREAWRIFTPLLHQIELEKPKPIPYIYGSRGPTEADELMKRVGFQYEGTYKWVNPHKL
Sequence of Cyclin-dependent kinase 5/CDK5 activator 1 (Q00535 whole entry): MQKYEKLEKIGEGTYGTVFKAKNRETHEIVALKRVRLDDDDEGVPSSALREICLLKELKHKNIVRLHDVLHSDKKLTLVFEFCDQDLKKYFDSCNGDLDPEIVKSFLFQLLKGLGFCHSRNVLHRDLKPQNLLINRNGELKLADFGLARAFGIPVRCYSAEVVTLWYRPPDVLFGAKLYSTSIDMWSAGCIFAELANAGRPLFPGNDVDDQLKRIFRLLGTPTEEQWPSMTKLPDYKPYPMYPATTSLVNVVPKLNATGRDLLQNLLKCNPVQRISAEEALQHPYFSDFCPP
Sequence of Cyclin-dependent kinase 5/CDK5 activator 1 (Q15078 whole entry, further chain): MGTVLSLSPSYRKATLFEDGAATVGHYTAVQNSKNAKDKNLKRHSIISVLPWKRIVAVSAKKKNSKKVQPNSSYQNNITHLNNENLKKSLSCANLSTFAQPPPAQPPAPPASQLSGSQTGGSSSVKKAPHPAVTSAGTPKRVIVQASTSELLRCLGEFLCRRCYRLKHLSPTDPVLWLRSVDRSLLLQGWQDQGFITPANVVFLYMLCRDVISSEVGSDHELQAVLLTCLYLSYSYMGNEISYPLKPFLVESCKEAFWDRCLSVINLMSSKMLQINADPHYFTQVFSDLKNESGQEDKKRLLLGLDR
Sequence of Insulin-degrading enzyme (P14735 whole entry): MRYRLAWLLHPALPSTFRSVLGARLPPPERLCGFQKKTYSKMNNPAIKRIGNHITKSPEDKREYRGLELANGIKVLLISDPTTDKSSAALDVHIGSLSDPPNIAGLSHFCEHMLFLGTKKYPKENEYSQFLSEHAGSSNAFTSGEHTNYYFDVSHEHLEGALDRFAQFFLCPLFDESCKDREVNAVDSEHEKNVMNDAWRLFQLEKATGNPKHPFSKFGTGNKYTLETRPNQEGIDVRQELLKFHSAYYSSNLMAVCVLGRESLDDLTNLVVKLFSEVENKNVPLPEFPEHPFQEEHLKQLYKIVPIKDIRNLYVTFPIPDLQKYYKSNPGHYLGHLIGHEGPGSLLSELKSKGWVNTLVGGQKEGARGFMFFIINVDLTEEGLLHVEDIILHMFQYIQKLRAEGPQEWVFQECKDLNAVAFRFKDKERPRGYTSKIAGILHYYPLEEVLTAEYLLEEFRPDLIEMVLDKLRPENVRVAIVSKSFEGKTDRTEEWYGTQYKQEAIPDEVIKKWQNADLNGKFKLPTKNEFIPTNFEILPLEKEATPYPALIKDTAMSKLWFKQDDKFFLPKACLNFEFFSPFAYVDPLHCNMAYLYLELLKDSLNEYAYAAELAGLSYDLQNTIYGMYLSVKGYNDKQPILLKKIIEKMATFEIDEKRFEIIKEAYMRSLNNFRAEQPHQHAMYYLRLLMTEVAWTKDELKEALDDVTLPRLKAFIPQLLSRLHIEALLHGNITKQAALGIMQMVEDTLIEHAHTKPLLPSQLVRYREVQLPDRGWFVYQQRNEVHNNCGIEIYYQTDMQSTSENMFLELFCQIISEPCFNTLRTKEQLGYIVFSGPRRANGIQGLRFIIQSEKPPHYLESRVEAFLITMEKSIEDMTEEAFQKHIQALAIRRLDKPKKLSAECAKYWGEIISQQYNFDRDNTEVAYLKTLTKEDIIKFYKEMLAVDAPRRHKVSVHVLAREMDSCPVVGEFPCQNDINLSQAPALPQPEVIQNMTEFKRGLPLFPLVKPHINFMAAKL
Sequence of Cytochrome P450 2C19 (P33261 whole entry): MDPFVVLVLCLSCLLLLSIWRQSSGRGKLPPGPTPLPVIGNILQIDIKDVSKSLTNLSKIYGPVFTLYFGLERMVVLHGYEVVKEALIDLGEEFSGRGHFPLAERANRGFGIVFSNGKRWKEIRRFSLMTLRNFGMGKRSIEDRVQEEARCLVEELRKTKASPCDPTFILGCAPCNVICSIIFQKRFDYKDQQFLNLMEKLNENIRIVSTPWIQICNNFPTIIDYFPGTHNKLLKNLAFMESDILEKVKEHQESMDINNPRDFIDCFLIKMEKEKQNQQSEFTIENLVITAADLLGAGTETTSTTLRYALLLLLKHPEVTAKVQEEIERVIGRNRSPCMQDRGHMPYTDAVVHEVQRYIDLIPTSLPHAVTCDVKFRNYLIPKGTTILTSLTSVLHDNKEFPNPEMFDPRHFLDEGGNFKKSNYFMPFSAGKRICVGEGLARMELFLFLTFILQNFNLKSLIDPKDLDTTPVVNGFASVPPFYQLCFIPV
Sequence of Dual specificity protein phosphatase 3 (P51452 whole entry): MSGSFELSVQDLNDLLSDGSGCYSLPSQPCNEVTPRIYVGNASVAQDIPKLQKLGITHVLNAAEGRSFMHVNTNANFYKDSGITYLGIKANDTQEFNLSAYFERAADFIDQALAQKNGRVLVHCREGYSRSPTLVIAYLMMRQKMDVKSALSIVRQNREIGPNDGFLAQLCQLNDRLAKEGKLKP
Sequence of Procathepsin L (P07711 whole entry): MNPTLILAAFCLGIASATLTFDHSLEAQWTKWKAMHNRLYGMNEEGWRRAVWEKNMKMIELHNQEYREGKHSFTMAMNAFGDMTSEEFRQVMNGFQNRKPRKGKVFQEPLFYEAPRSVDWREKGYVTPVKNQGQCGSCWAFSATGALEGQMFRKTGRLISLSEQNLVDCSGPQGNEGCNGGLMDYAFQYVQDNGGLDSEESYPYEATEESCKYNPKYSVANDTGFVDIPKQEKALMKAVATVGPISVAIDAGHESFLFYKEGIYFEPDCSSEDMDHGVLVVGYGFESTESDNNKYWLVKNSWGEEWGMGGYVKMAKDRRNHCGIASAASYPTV

## COc1ccc(N=Nc2n(C)c3ccccc3[n+]2C)cc1
[1]
  EC50: > 55.7 µM (not active)
[2]
  EC50: 0.631 µM (active)
[3]
  EC50: 0.738 µM (active)
[4]
  EC50: > 55.7 µM (not active)

## CCN(CC)c1ccc(C=C(c2nnnn2-c2ccccc2)c2nnnn2-c2ccccc2)cc1
[5]
  IC50: > 55.7 µM (not active)
Insulin-degrading enzyme
  IC50: > 55.9 µM (not active)

## COc1ccc(-c2cc(C(=O)NCCc3ccccc3)c3ccccc3n2)c(OC)c1
[6]
  Ki: 27.9 µM (inactive)

## CC1(C)CC2(CC(c3ccccc3F)c3ccc(O)c(O)c3O2)NC(=S)N1 (stereo not drawn)
Aspartyl aminopeptidase
  IC50: 1.76 µM (active)
Procathepsin L
  IC50: > 59.6 µM (not active)
[7]
  IC50: 39.9 µM (active)
[8]
  IC50: > 80 µM (inactive)

## CC(C)[C@@H](CC(=O)N[C@@H]1CCNC[C@H]1C(=O)N[C@H](CC(=O)N[C@@H](CCC(=O)O)CC(=O)O)Cc1ccccc1)NC(=O)C[C@H](CO)NC(=O)[C@@H]1CNCC[C@H]1N
Cytochrome P450 2C19
  AC50: 39.8 µM (inconclusive)
Cytochrome P450 2C9
  AC50: 25.1 µM (inconclusive)

## O=C(O)c1ccccc1NC(c1ccccc1)c1ccc(Cl)cc1 (stereo not drawn)
Staphylococcus aureus
  IC50: 0.448 µM (active)

## Cc1cccc(NC(=O)Nc2cc(C)on2)c1
[9]
  AC50: 7.61 µM (active)

## O=C(c1cc(-c2ccccc2Cl)on1)N1CCCC1
[10]
  IC50: > 39.8 µM (not active)
[11]
  AC50: > 52 µM (inactive)
[12]
  AC50: > 52 µM (inactive)
[13]
  AC50: 7.48 µM (active)
[14]
  AC50: 12.1 µM (active)
[15]
  EC50: > 67.5 µM (inactive)
cells
  EC50: > 67.5 µM (inactive)

## COc1cccc(C(c2cc3c(cc2O)OCO3)N2CCCC2)c1O (stereo not drawn)
[16]
  IC50: < 2.5 µM (not active)

## Cc1ccc(-n2nc(C)c3c2C(Br)C(C)(C)CC3=O)nc1 (stereo not drawn)
[17]
  AC50: 43.3 µM (active)

## COc1cccc(/C=N/Nc2nc(Nc3ccc([N+](=O)[O-])cc3)nc(N3CCCC3)n2)c1O
[18]
  EC50: 4.69 µM (active)
[19]
  IC50: 2.8 µM (active)
[20]
  EC50: 3.77 µM (active)
[21]
  IC50: 2.71 µM (active)
[22]
  EC50: > 38 µM (not active)
[23]
  EC50: 0.866 µM (active)
[24]
  EC50: 8.48 µM (active)
Streptococcus
  EC50: 12.1 µM (active)
[25]
  IC50: 1.64 µM (active)
Beta-galactosidase
  IC50: > 66.6 µM (inactive)
Paired box protein Pax-8
  AC50: 5.65 µM (active)
[26]
  AC50: 20.9 µM (active)

## CN(Cc1cnc2nc(N)nc(N)c2n1)c1ccc(C(=O)NC(CCC(=O)O)C(=O)O)cc1 (stereo not drawn)
HeLa
  AC50: 0.629 µM (active)
[27]
  IC50: 52.1 µM (inactive)
[28]
  IC50: 41.6 µM (inactive)
[29]
  AC50: 74.5 µM (active)
[30]
  CC50: 0.23 µM (active)

## COc1ccc(Nc2nc(N)nc(CN(C)C3CCCCC3)n2)cc1
Protein Rev
  IC50: > 79.4 µM (not active)
[29]
  AC50: 90.7 µM (active)
